{"source": "patent US6468964B1", "about": "“Control of acidic gut syndrome” (University of New England, of Armidale, priority 1997, dated 2002)", "key": {"[1]": {"test_system": "acid accumulation in the hind gut", "experiment": "Acidic gut syndrome in pigs fed HGF diet: digesta/faecal pH and faecal consistency", "type": "in vivo, pig", "excerpt": "Pigs were weaned at 4 weeks of age and housed individually in pens with concrete floors with weld mesh dividing walls in temperature controlled facilities. The pens were cleaned twice per day and drinking water was provided by an automatic watering system. All animals were handled daily to acclimatise them to experimental procedures associated with sampling.\nPiglets were fed ad libitum on the basal diet for two weeks until commencement of dietary treatments. The diets were formulated to ensure balanced provisions of nutrients for growth and contained 67.5% carbohydrate (rice, cornflour and raftilose) and 32.5% protein mix. The protein mix contained 55% meat meal, 32% fishmeal, 6% casein and 6% vitamins, oil and synthetic amino acids. The proportion of total carbohydrates contributed by rice, corn flour and raftilose on each day of the study is shown in Table 1 together with the total amount offered per pig.\n1. Daily collection of faeces from the pens of each pig to assess faecal consistency and for measurement of pH. Faecal consistency was assessed on a scale 1 to 5 with 1 being liquid diarrhoea and 5 being dry, separate, well formed faeces.\n(§1) 7. On day 7, half of the pigs in each treatment group were euthanased with pentobarbitone. Post mortem measurements were made of size of the digestive tract, the pH of diqesta in different part of the tract and the digestive tract and other organs were examined for any sign of abnormal tissue appearance. On day 8 the remaining pigs were euthanased and the same post mortem measurements made on these animals."}, "Caecal Lactobacilli": {"test_system": "Caecal Lactobacilli", "experiment": "Pigs fed HGF diet: caecal Lactobacilli count", "type": "in vivo", "conditions": "HGF diet with 25 mg virginiamycin/kg DM", "excerpt": "(§2) Studies of rapid carbohydrate fermentation and acid build up in the hind gut of sheep and horses have shown that the concentration of volatile fatty acids (VFA) starts to increase and pH starts to drop before there is a proliferation of gram positive bacteria (particularly Streptococcus bovis and Lactobacilli) capable of producing lactic-acid. Lactic acid is a stronger acid than the VFA and is not absorbed from the caecum as quickly as VFA, and this combination of factors leads to low pH which is the first step in development of acidic gut syndrome. Virginiamycin was included in the diet of one of the two dietary treatments containing raftilose and high-maize starch to investigate its effectiveness in controlling lactic acid accumulation and hind gut pH as a potential method for preventing or controlling acidic gut syndrome.\nas §1"}, "Caecal Strep. Bovis": {"test_system": "Caecal Strep. Bovis", "experiment": "Pigs fed HGF diet: caecal Strep. bovis count", "type": "in vivo, Streptococcus bovis", "conditions": "HGF diet with 25 mg virginiamycin/kg DM", "excerpt": "as §2, §1"}, "[2]": {"test_system": "immune system (neutrophils, lymphocytes, acute phase protein, IL-1)", "experiment": "Pigs fed HGF diet: changes in immune system (white blood cells, acute phase protein, IL-1)", "type": "in vivo, pig", "conditions": "HGF diet with 25 mg virginiamycin/kg DM"}, "[3]": {"experiment": "Pigs fed HGF diet: feed intake, weight change, weight of washed gut", "type": "in vivo, pig", "method": "3. Body weights were measured 2 days before the start of feeding experimental diets, on day 3 and day 7.\n5. The amount of feed not consumed was measured each afternoon and intake calculated as a % of amount offered.\nas §1"}, "[4]": {"test_system": "fermentative acidosis in the rumen and hind gut", "experiment": "Sheep overfed high-barley pellets: rumen and faecal pH, lactate, rumen VFA", "type": "in vivo", "excerpt": "(§3) Six full mouth cannulated cross-bred sheep, weighing approximately 45 kg were used in the trial. These sheep were housed in individual pens on a wood grating floor in an enclosed animal house. All sheep were fed once per day, and water was available at all times ad libitum. All sheep were fed a basal diet consisting of oaten chaff plus 1% urea and 1% mineral pre-mix (Pfizer Animal Health Pty. Ltd.). At time 0 in the experiment, all sheep were fed a pellet containing high levels of barley with or without virginiamycin (VM). The sheep were autopsied 48 hours after grain feeding.\n(§4) All sheep were offered 1000 g of a pellet containing 76% barley, 17% lucerne, 3.5% cottonseed meal, 1% urea and 1.5% limestone at the start of the experiment. The sheep were then offered another 1000 g of the pellet 12 hours later. All sheep consumed all of the pelleted feed offered. Half of the sheep received the pellets with no dietary additives, and the other half received the pellets with virginiamycin (VM) added at 30 mg/kg. Eskalin (Pfizer Animal Health Pty. Ltd., 20 g virginiamycin/kg) was included at 1.5 g/kg pellets to provide 30 mg VM/kg in the mixed diet. The animals were monitored closely after receiving grain and autopsied 48 hours after initial grain feeding.\n(§5) All sheep were fitted with faecal collection bags, which consisted of a PVC ring attached to the posterior of the sheep to which a plastic bag was attached in order to collect total faecal output. Rumen fluid was taken via the rumen fistula. Rumen and faecal samples were taken at 4 hourly intervals for the first 12 hours after grain feeding. Samples were then taken at 24, 36 and 48 hours after initial feeding.\nRumen fluid pH was analysed immediately using a portable pH meter (‘Piccolo 2’ ATC pH meter by Hanna Instruments). A sample was also added to a 20 mL McCartney bottle containing approximately 7 μL of concentrated H2SO4, and frozen for later analysis of lactic and volatile fatty acids.\n(§6) A representative 20 g sample of faeces was taken into a small vial, an equal volume of water added and mixed well. The faecal pH was then measured immediately on this sample as for rumen fluid. A further sample was placed in a sterile container and an equal weight of deionised water added to it. This was mixed well using a sterile spatula, and then centrifuged at 15000 rpm for 20 mins. The supernatant was then transferred using a sterile pipette to 3 individual microfuge tubes and frozen for later analysis for TNF-α. TNF-α was measured in the faeces using an ELISA method."}, "TNF-α": {"test_system": "TNF-α", "experiment": "Sheep overfed high-barley pellets: faecal TNF-α by ELISA", "type": "in vivo", "conditions": "VM 30 mg/kg pellets; for Faecal TNF-α concentration, individual sheep: sheep 2, 4, 6, listed as VM", "excerpt": "as §3, §4, §5, §6"}, "[5]": {"test_system": "acid accumulation in the hind gut", "experiment": "Acidic gut syndrome in pigs fed HGF diet: digesta/faecal pH and faecal consistency", "type": "in vivo, pig", "conditions": "HGF diet with 25 mg virginiamycin/kg DM, post mortem"}, "[6]": {"conditions": "pigs on HGF diet, 25 mg virginiamycin/kg DM"}, "[7]": {"conditions": "weaner pigs, HGF diet with 25 mg virginiamycin/kg dietary DM, post mortem"}, "[8]": {"conditions": "pigs, post mortem, HGF diet with 25 mg virginiamycin/kg DM"}, "[9]": {"conditions": "proportion mmol/100 mmol, sheep, VM 30 mg/kg"}, "[10]": {"conditions": "sheep fed high grain pellets, VM 30 mg/kg"}, "[11]": {"conditions": "sheep overfed grain, VM 30 mg/kg pellets"}, "[12]": {"conditions": "sheep overfed grain, VM 30 mg/kg, 36 and 48 hour samples"}, "[13]": {"conditions": "sheep, VM 30 mg/kg versus no additive"}}, "note": "“And” between values parts separate entries of the source, which are not always exact repeats. Equal entries are not always repeated. Marks after values point to notes of the source that are not given here."}
{"substance": "virginiamycin", "values": [{"measurement": "pH in different parts of the digestive tract (FIG. 6, words)", "setting": "[1]; pigs fed HGF diet with or without virginiamycin", "result": "consistent effect in reducing acid accumulation (increasing pH) in all parts of the digestive tract"}, {"measurement": "Acid accumulation in the hind gut and in faeces", "setting": "[1]; [6]", "result": "effective in reducing the extent of acid accumulation"}, {"measurement": "Effect on faecal consistency", "setting": "[1]; [6]", "result": "significantly improved faecal consistency"}, {"measurement": "Ileal pH", "setting": "[1]; pigs, HGF diet with 25 mg virginiamycin/kg DM, post mortem", "result": 6.3}, {"measurement": "Faecal consistency (av d1-5)", "setting": "[1]; scale 1 to 5, 1 liquid diarrhoea, 5 dry well formed faeces, pigs, HGF diet with 25 mg virginiamycin/kg DM", "result": "3.53^c"}, {"measurement": "Average faecal pH", "setting": "[1]; weaner pigs, HGF diet with 25 mg virginiamycin/kg DM", "result": "6.0^b"}, {"measurement": "Faecal pH (day 2)", "setting": "[1]; weaner pigs, HGF diet with 25 mg virginiamycin/kg DM, day 2", "result": "6.3^b"}, {"measurement": "Faecal pH (day 5)", "setting": "[1]; weaner pigs, HGF diet with 25 mg virginiamycin/kg DM, day 5", "result": "6.0^b"}, {"measurement": "Caecal pH", "setting": "[1]; [7]", "result": "5.7^ab"}, {"measurement": "Rectal pH", "setting": "[1]; [7]", "result": "6.3^b"}, {"measurement": "Caecal Lactobacilli", "setting": "Caecal Lactobacilli", "result": "1.4 × 10^10"}, {"measurement": "Caecal Strep. Bovis", "setting": "Caecal Strep. Bovis", "result": "3.2 × 10^9"}, {"measurement": "Acute phase protein CD3", "setting": "[2]", "result": 5.9}, {"measurement": "IL-1 (av. days 1, 2, 5 & 8)", "setting": "[2]", "result": 1.6}, {"measurement": "IL-1 (day 5)", "setting": "[2]; day 5", "result": 2.0}, {"measurement": "Lymphocytes (L)", "setting": "[2]; jugular blood", "result": 11.0}, {"measurement": "N:L ratio", "setting": "[2]; neutrophil to lymphocyte ratio", "result": 0.57, "unit": "a"}, {"measurement": "Feed intake versus HGF diet alone", "setting": "[3]; pigs on HGF diet treated with virginiamycin", "result": "higher intake"}, {"measurement": "Weight change (days 3 to 7)", "setting": "[3]; pigs, HGF diet with 25 mg virginiamycin/kg DM", "result": 1.13}, {"measurement": "Intake (% offered) (day 4)", "setting": "[3]; pigs, HGF diet with 25 mg virginiamycin/kg DM, day 4", "result": "81^ab % offered"}, {"measurement": "Av intake (days 1 to 8)", "setting": "[3]; pigs, HGF diet with 25 mg virginiamycin/kg DM, intake calculated as % of amount offered", "result": "83^ab"}, {"measurement": "Weight of washed gut (g): Caecum", "setting": "[3]; [8]", "result": "31.4^a g"}, {"measurement": "Weight of washed gut (g): Rectum", "setting": "[3]; [8]", "result": 35.1, "unit": "g"}, {"measurement": "Weight of washed gut (g): Stomach", "setting": "[3]; [8]", "result": 115, "unit": "g"}, {"measurement": "Rumen Ac (%)", "setting": "[4]; [9]", "result": 50.941, "unit": "%"}, {"measurement": "Rumen But (%)", "setting": "[4]; [9]", "result": 8.75, "unit": "%"}, {"measurement": "Rumen Pr (%)", "setting": "[4]; [9]", "result": 34.36, "unit": "%"}, {"measurement": "Ratio of Propionate to Acetate+(2×Butyrate)", "setting": "[4]; rumen, sheep fed VM versus no additive", "result": "significantly higher"}, {"measurement": "Rumen D-Lactic acid", "setting": "[4]; [10]", "result": 25.12, "unit": "mmol/L"}, {"measurement": "Rumen L-Lactic acid", "setting": "[4]; [10]", "result": 7.33, "unit": "mmol/L"}, {"measurement": "Rumen total VFA", "setting": "[4]; [10]", "result": 81.80, "unit": "mmol/L"}, {"measurement": "Average faecal pH", "setting": "[4]; [11]", "result": 7.28}, {"measurement": "Average rumen pH", "setting": "[4]; [11]", "result": 5.84}, {"measurement": "Faecal D-lactate", "setting": "[4]; [12]", "result": 7.43}, {"measurement": "Faecal L-lactate", "setting": "[4]; [12]", "result": 28.2}, {"measurement": "Difference in rumen or faecal pH between treatment groups", "setting": "[4]; [13]", "result": "no differences"}, {"measurement": "Treatment effect on rumen lactic acid concentration", "setting": "[4]; [13]", "result": "No treatment effects"}, {"measurement": "pH in different parts of the digestive tract (FIG. 8, words)", "setting": "[4]; sheep, high-barley pellets with or without virginiamycin, autopsy at 48 hours", "result": "consistent effect in reducing acid accumulation (increasing pH) in all parts of the digestive tract"}, {"measurement": "Faecal TNF-α concentration, group average", "setting": "TNF-α; experimental hour 0", "result": 12333}, {"measurement": "Faecal TNF-α concentration, individual sheep", "setting": "TNF-α; experimental hour 0", "result": "9000 and 16000 and 12000"}, {"measurement": "Faecal TNF-α concentration, group average", "setting": "TNF-α; experimental hour 24", "result": 17667}, {"measurement": "Faecal TNF-α concentration, individual sheep", "setting": "TNF-α; experimental hour 24", "result": "12000 and 24000 and 17000"}, {"measurement": "Faecal TNF-α concentration, group average", "setting": "TNF-α; experimental hour 36", "result": 62444}, {"measurement": "Faecal TNF-α concentration, individual sheep", "setting": "TNF-α; experimental hour 36", "result": "98333 and 64000 and 25000"}, {"measurement": "Faecal TNF-α concentration, group average", "setting": "TNF-α; experimental hour 48", "result": 124222}, {"measurement": "Faecal TNF-α concentration, individual sheep", "setting": "TNF-α; experimental hour 48", "result": "230667 and 66000 and 76000"}, {"measurement": "Stomach pH (days 8/9)", "setting": "[5]", "result": 3.6}]}
